Data reported in ChEMBL document CHEMBL1201862, “PubChem BioAssay data set” (2004).
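Method: 48-hour compound exposure of cells in 96-well plates, five concentrations, linear interpolation of endpoints. GI50: concentration for 50% inhibition of growth.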 Activity calls are given as the source filed them. Cut-off read from the data, not from the text of the source: active = GI50 up to about 1.1 µM and inactive = higher.

Tests used:
Test in all cases: inhibition of tumour cell growth, NCI panel, 48 h
BT-549 = system: BT-549
MDA-MB-435 = system: MDA-MB-435
MDA-N = system: MDA-N
SF-539 = system: SF-539
NCI/ADR-RES = system: NCI/ADR-RES
SK-MEL-5 = system: SK-MEL-5
SK-MEL-2 = system: SK-MEL-2
ACHN = system: ACHN
MCF7 = system: MCF7
MDA-MB-231 = system: MDA-MB-231
NCI-H522 = system: NCI-H522
KM12 = system: KM12
OVCAR-5 = system: OVCAR-5
HCT-116 = system: HCT-116
SF-295 = system: SF-295

With `C[C@]12CC[C@H](OC(=O)Cc3ccc(N(CCCl)CCCl)cc3)CC1=CC[C@@H]1[C@@H]2CC[C@]2(C)C(=O)CC[C@@H]12` the GI50 (BT-549) was > 100 µM (inactive), the GI50 (MDA-MB-435) was > 100 µM (inactive) and the GI50 (MDA-N) was > 100 µM (inactive). The GI50 (SF-539) was > 100 µM (inactive), the GI50 (NCI/ADR-RES) was > 100 µM (inactive) and the GI50 (SK-MEL-5) was > 100 µM (inactive). For the same compound, the GI50 (SK-MEL-2) was > 100 µM (inactive), the GI50 (ACHN) was > 100 µM (inactive) and the GI50 (MCF7) was > 100 µM (inactive). The GI50 (MDA-MB-231) was > 100 µM (inactive), the GI50 (NCI-H522) was > 100 µM (inactive) and the GI50 (KM12) was > 100 µM (inactive). The GI50 (OVCAR-5) was > 100 µM (inactive).

`CC(Cc1ccc2c(c1)OCO2)N(C)C(=O)C1=CCN(C)CC1` (stereo unspecified) was tested, and the GI50 (BT-549) was > 100 µM (inactive), the GI50 (MDA-MB-435) was > 100 µM (inactive) and the GI50 (MDA-N) was > 100 µM (inactive). For the same compound, the GI50 (NCI/ADR-RES) was > 100 µM (inactive), the GI50 (SK-MEL-5) was > 100 µM (inactive) and the GI50 (SK-MEL-2) was > 100 µM (inactive). The GI50 (ACHN) was > 100 µM (inactive), the GI50 (HCT-116) was > 100 µM (inactive) and the GI50 (MCF7) was > 100 µM (inactive). The GI50 (MDA-MB-231) was > 100 µM (inactive), the GI50 (SF-295) was > 100 µM (inactive) and the GI50 (NCI-H522) was > 100 µM (inactive). For the same compound, the GI50 (KM12) was > 100 µM (inactive) and the GI50 (OVCAR-5) was > 100 µM (inactive).

`CCC(Sc1cc(Cl)c(C)cc1S(=O)(=O)Nc1nc(N)nc(N(C)C)n1)C(=O)O` (stereo unspecified) was tested, and the GI50 (BT-549) was > 10 µM (inactive), the GI50 (MDA-N) was > 10 µM (inactive) and the GI50 (SF-539) was > 10 µM (inactive). The GI50 (NCI/ADR-RES) was > 10 µM (inactive), the GI50 (SK-MEL-5) was > 10 µM (inactive) and the GI50 (SK-MEL-2) was > 10 µM (inactive). For the same compound, the GI50 (ACHN) was > 10 µM (inactive), the GI50 (HCT-116) was > 10 µM (inactive) and the GI50 (MCF7) was > 10 µM (inactive). The GI50 (SF-295) was > 10 µM (inactive), the GI50 (NCI-H522) was > 10 µM (inactive) and the GI50 (KM12) was > 10 µM (inactive). The GI50 (OVCAR-5) was > 10 µM (inactive).

For `CC(C)=C[C@@H]1C[C@H](C)[C@H]2CC[C@H](C)[C@H]3C(=O)C(O)=C(C)C(=O)[C@]123`, the GI50 (BT-549) was > 100 µM (inactive), the GI50 (MDA-MB-435) was > 100 µM (inactive) and the GI50 (MDA-N) was > 100 µM (inactive). The GI50 (SF-539) was > 100 µM (inactive), the GI50 (NCI/ADR-RES) was > 100 µM (inactive) and the GI50 (SK-MEL-5) was > 100 µM (inactive). For the same compound, the GI50 (ACHN) was > 100 µM (inactive), the GI50 (HCT-116) was 88.5 µM (inactive) and the GI50 (MCF7) was > 100 µM (inactive). For the same compound, the GI50 (MDA-MB-231) was > 100 µM (inactive), the GI50 (SF-295) was > 100 µM (inactive) and the GI50 (NCI-H522) was 48.1 µM (inactive). The GI50 (KM12) was > 100 µM (inactive) and the GI50 (OVCAR-5) was > 100 µM (inactive).

`NC(=O)c1oc([N+](=O)[O-])c(-c2ccccc2)c1-c1ccccc1` was tested, and the GI50 (BT-549) was 8 µM (inactive), the GI50 (MDA-MB-435) was 14.9 µM (inactive) and the GI50 (SF-539) was 18.5 µM (inactive). The GI50 (NCI/ADR-RES) was 19.4 µM (inactive), the GI50 (SK-MEL-5) was 0.597 µM (active) and the GI50 (SK-MEL-2) was 15.6 µM (inactive). The GI50 (ACHN) was 26.2 µM (inactive), the GI50 (HCT-116) was 15.4 µM (inactive) and the GI50 (MCF7) was 29.5 µM (inactive). The GI50 (MDA-MB-231) was 13.5 µM (inactive), the GI50 (SF-295) was 15.8 µM (inactive) and the GI50 (NCI-H522) was 12.6 µM (inactive). For the same compound, the GI50 (KM12) was 13.6 µM (inactive) and the GI50 (OVCAR-5) was 26.1 µM (inactive).

For `COc1ccc(-c2oc3cc(-c4cc5oc(-c6ccc(OC)cc6)c(-c6ccc(OC)cc6)c5cc4OC)c(OC)cc3c2-c2ccc(OC)cc2)cc1`, the GI50 (BT-549) was > 100 µM (inactive), the GI50 (MDA-MB-435) was > 100 µM (inactive) and the GI50 (MDA-N) was > 100 µM (inactive). The GI50 (SF-539) was > 100 µM (inactive), the GI50 (NCI/ADR-RES) was > 100 µM (inactive) and the GI50 (SK-MEL-5) was > 100 µM (inactive). The GI50 (ACHN) was > 100 µM (inactive), the GI50 (HCT-116) was > 100 µM (inactive) and the GI50 (MCF7) was > 100 µM (inactive). The GI50 (MDA-MB-231) was > 100 µM (inactive), the GI50 (SF-295) was > 100 µM (inactive) and the GI50 (NCI-H522) was > 100 µM (inactive). For the same compound, the GI50 (KM12) was > 100 µM (inactive) and the GI50 (OVCAR-5) was > 100 µM (inactive).

For `O=S(=O)(N/C(=N\O)Nc1ccc(Cl)cc1)c1cc2ccccc2s1`, the GI50 (BT-549) was 17.1 µM (inactive), the GI50 (MDA-MB-435) was 16.6 µM (inactive) and the GI50 (MDA-N) was 20.9 µM (inactive). For the same compound, the GI50 (SF-539) was 18.5 µM (inactive), the GI50 (NCI/ADR-RES) was 20.2 µM (inactive) and the GI50 (SK-MEL-5) was 16.3 µM (inactive). For the same compound, the GI50 (SK-MEL-2) was 15.8 µM (inactive), the GI50 (ACHN) was 16.4 µM (inactive) and the GI50 (HCT-116) was 16.6 µM (inactive). The GI50 (MDA-MB-231) was 17.3 µM (inactive), the GI50 (SF-295) was 20.1 µM (inactive) and the GI50 (NCI-H522) was 13.8 µM (inactive). For the same compound, the GI50 (KM12) was 22.3 µM (inactive) and the GI50 (OVCAR-5) was 15.2 µM (inactive).
